Laboratory results taken from ChEMBL document CHEMBL1123909, “New inhibitors of human renin that contain novel Leu-Val replacements” (J Med Chem, 1987).

What was measured:
[1] = biological target: T1, Renin (Homo sapiens, UniProt P00797); experiment: The compound was tested for inhibition of human renal renin at the pH optimum 7.4
T1 sequence (P00797 whole entry): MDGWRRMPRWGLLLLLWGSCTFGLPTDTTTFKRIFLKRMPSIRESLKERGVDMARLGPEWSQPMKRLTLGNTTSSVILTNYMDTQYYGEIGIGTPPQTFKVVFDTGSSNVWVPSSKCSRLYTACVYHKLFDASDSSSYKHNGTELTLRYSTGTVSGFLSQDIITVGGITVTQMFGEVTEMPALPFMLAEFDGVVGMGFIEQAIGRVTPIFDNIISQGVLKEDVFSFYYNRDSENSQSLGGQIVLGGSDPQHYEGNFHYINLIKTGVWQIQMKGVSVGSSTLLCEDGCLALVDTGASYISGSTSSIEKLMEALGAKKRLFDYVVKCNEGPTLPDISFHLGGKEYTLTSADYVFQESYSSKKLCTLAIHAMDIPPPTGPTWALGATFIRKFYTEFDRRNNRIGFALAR

[2] = biological target: T2, Renin (Homo sapiens) (UniProt P00797); experiment: Inhibition of human renal renin at the concentration of 10e-5 M.
T2 sequence (whole entry): T1 sequence (P00797 whole entry)

[3] = biological target: T1, Renin; experiment: Inhibition of human renal renin at the pH optimum 6.0.
[4] = biological target: Pepsin A (Sus scrofa) (UniProt P00791); experiment: Inhibition of porcine pepsin; parameters: concentration or dose not given beside the values; conditions: concentration not given here
Sequence of Pepsin A (Sus scrofa) (P00791 60-385 limits assumed): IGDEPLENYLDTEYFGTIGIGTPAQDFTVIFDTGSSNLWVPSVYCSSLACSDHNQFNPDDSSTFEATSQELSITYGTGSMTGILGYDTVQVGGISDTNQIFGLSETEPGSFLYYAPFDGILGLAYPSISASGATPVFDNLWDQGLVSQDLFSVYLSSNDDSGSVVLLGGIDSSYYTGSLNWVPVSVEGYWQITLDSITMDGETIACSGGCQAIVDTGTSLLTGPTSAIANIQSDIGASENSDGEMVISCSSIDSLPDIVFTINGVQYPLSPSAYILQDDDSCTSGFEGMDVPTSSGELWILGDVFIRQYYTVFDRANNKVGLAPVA

[5] = biological target: T2, Renin (Homo sapiens); experiment: The compound was tested for inhibition of human renal renin at the concentration of 10e-5 M (compound with OH epimer)
[6] = biological target: T2, Renin (Homo sapiens); experiment: The compound was tested for inhibition of human renal renin at the concentration of 10e-6 M
[7] = biological target: T2, Renin (Homo sapiens); experiment: The compound was tested for inhibition of human renal renin at the concentration of 10e-7 M
[8] = biological target: T2, Renin (Homo sapiens); experiment: The compound was tested for inhibition of human renal renin at the concentration of 10e-5 M (2:1 mixture of S:R diastereomers at the carbon bearing the hydroxyl group.

inhibition [2] [%] | IC50 [3] [µM] | SMILES | other results
98 |  | CC(C)C[C@@H](NC(=O)[C@H](Cc1c[nH]cn1)NC(=O)[C@H](Cc1ccccc1)NC(=O)OC(C)(C)C)[C@H](O)CS(=O)(=O)CC(C)C | IC50 [1]: 0.35 µM
90 | 0.7 | CC(C)C[C@H](NC(=O)[C@H](C)NC(=O)[C@H](Cc1ccccc1)NC(=O)OC(C)(C)C)[C@@H](O)CSC(C)C | inhibition [4]: 73%
 | 0.035 | CC(C)C[C@H](NC(=O)[C@H](Cc1c[nH]cn1)NC(=O)[C@H](Cc1ccccc1)NC(=O)OC(C)(C)C)[C@@H](O)CSC1CCCCC1 (stereo in doubt; 55) [listing 1 of 2 here] | 
94 | 1 | CC(C)C[C@@H](NC(=O)[C@H](C)NC(=O)[C@H](Cc1ccccc1)NC(=O)OC(C)(C)C)[C@H](O)CSC1CCCC1 | 
21 |  | CC(C)C[C@@H](NC(=O)[C@H](C)NC(=O)[C@H](Cc1ccccc1)NC(=O)OC(C)(C)C)[C@H](O)CSc1ccc(Br)cc1 | 
7 |  | CC(C)C[C@@H](NC(=O)[C@H](C)NC(=O)[C@H](Cc1ccccc1)NC(=O)OC(C)(C)C)[C@H](O)CSc1cccc2ccccc12 | 
 |  | CC(C)CC[C@@H](O)[C@H](CC(C)C)NC(=O)[C@H](C)NC(=O)[C@H](Cc1ccccc1)NC(=O)OC(C)(C)C | inhibition [5]: 16%
94 | 0.8 | CC(C)C[C@@H](NC(=O)[C@H](C)NC(=O)[C@H](Cc1ccccc1)NC(=O)OC(C)(C)C)[C@H](O)CSC1CCCCC1 | inhibition [4]: 100%
97 | 0.6 | CC(C)CCC[C@@H](O)[C@@H](CC(C)C)NC(=O)[C@H](Cc1c[nH]cn1)NC(=O)[C@H](Cc1ccccc1)NC(=O)OC(C)(C)C | 
46 |  | CC(C)C[C@@H](NC(=O)[C@H](C)NC(=O)[C@H](Cc1ccccc1)NC(=O)OC(C)(C)C)[C@H](O)C[S+]([O-])C1CCCCC1 (some centres undefined) | 
59 | 7 | CC(C)COC[C@@H](O)[C@@H](CC(C)C)NC(=O)[C@H](C)NC(=O)[C@H](Cc1ccccc1)NC(=O)OC(C)(C)C | inhibition [4]: 68%
99 | 0.2 | CC(C)C[C@@H](NC(=O)[C@H](Cc1c[nH]cn1)NC(=O)[C@H](Cc1ccccc1)NC(=O)OC(C)(C)C)[C@H](O)CS(=O)(=O)C(C)C | inhibition [4]: 3%
48 |  | CC(C)C[C@@H](NC(=O)[C@H](C)NC(=O)[C@H](Cc1ccccc1)NC(=O)OC(C)(C)C)[C@H](O)COc1ccccc1 | inhibition [4]: 27%
54 | 7 | CC(C)C[C@@H](NC(=O)[C@H](C)NC(=O)[C@H](Cc1ccccc1)NC(=O)OC(C)(C)C)[C@H](O)COC(C)C | 
 | 0.09 | CC(C)C[C@@H](NC(=O)[C@H](Cc1c[nH]cn1)NC(=O)[C@H](Cc1ccccc1)NC(=O)OC(C)(C)C)[C@H](O)CS(=O)(=O)C1CCCCC1 | inhibition [6]: 92%; inhibition [7]: 51%
12 |  | CC(C)C[C@@H](NC(=O)[C@H](C)NC(=O)[C@H](Cc1ccccc1)NC(=O)OC(C)(C)C)[C@H](O)C[S+]([O-])c1ccccc1 (some centres undefined) | 
76 | 2 | CC(C)C[C@@H](NC(=O)[C@H](C)NC(=O)[C@H](Cc1ccccc1)NC(=O)OC(C)(C)C)[C@H](O)CS(=O)(=O)C1CCCCC1 | 
71 | 3.5 | CC(C)CCC[C@@H](O)[C@@H](CC(C)C)NC(=O)[C@H](C)NC(=O)[C@H](Cc1ccccc1)NC(=O)OC(C)(C)C | 
15 |  | CC(C)C[C@@H](NC(=O)[C@H](C)NC(=O)[C@H](Cc1ccccc1)NC(=O)OC(C)(C)C)[C@H](O)CSc1ccc(C(C)(C)C)cc1 | 
88 | 3 | CC(C)C[C@@H](NC(=O)[C@H](C)NC(=O)[C@H](Cc1ccccc1)NC(=O)OC(C)(C)C)[C@H](O)CSC(C)(C)C | 
48 |  | CC(C)C[C@@H](NC(=O)[C@H](C)NC(=O)[C@H](Cc1ccccc1)NC(=O)OC(C)(C)C)[C@H](O)CSCc1cccc2ccccc12 | 
 | 0.081 | CC(C)C[C@@H](NC(=O)[C@H](Cc1c[nH]cn1)NC(=O)[C@H](Cc1ccccc1)NC(=O)OC(C)(C)C)[C@H](O)CSC(C)C | inhibition [6]: 92%; inhibition [7]: 54%
57 | 10 | CC(C)C[C@@H](NC(=O)[C@H](C)NC(=O)[C@H](Cc1ccccc1)NC(=O)OC(C)(C)C)[C@H](O)CSCc1ccccc1 | inhibition [4]: 96%
23 |  | CC(C)C[C@@H](NC(=O)[C@H](C)NC(=O)[C@H](Cc1ccccc1)NC(=O)OC(C)(C)C)[C@H](O)CSc1ccc2ccccc2c1 | 
88 | 1 | CC(C)C[C@@H](NC(=O)[C@H](C)NC(=O)[C@H](Cc1ccccc1)NC(=O)OC(C)(C)C)[C@H](O)CSCCCc1ccccc1 | inhibition [4]: 74%

inhibition [2] [%] | IC50 [3] [µM] | SMILES | other results
 |  | CC(C)CC[C@@H](O)[C@@H](CC(C)C)NC(=O)[C@H](Cc1c[nH]cn1)NC(=O)[C@H](Cc1cccc2ccccc12)NC(=O)OC(C)(C)C | inhibition [6]: 93%; IC50 [1]: 0.15 µM; inhibition [4]: 6%
89 | 1.5 | CC(C)CSC[C@@H](O)[C@@H](CC(C)C)NC(=O)[C@H](C)NC(=O)[C@H](Cc1ccccc1)NC(=O)OC(C)(C)C | 
30 |  | CC(C)C[C@@H](NC(=O)[C@H](C)NC(=O)[C@H](Cc1ccccc1)NC(=O)OC(C)(C)C)[C@H](O)CNc1ccccc1 | 
 | 0.6 | CC(C)CC[C@@H](O)[C@@H](CC(C)C)NC(=O)[C@H](Cc1c[nH]cn1)NC(=O)[C@H](Cc1ccc2ccccc2c1)NC(=O)OC(C)(C)C | inhibition [6]: 87%
85 | 2 | CC(C)CC[C@H](O)[C@H](CC(C)C)NC(=O)[C@H](C)NC(=O)[C@H](Cc1ccccc1)NC(=O)OC(C)(C)C | 
48 |  | CC(C)C[C@@H](NC(=O)[C@H](Cc1ccccc1)NC(=O)[C@H](Cc1ccccc1)NC(=O)OC(C)(C)C)[C@H](O)CSc1ccccc1 | inhibition [4]: 11%
85 | 1.5 | CC(C)C[C@@H](NC(=O)[C@H](Cc1c[nH]cn1)NC(=O)[C@H](Cc1ccccc1)NC(=O)OC(C)(C)C)[C@H](O)COC(C)C | inhibition [4]: 0%
94 |  | CC(C)CCS(=O)(=O)C[C@@H](O)[C@@H](CC(C)C)NC(=O)[C@H](Cc1c[nH]cn1)NC(=O)[C@H](Cc1ccccc1)NC(=O)OC(C)(C)C | IC50 [1]: 0.5 µM
94 | 0.65 | CC(C)COC[C@@H](O)[C@@H](CC(C)C)NC(=O)[C@H](Cc1c[nH]cn1)NC(=O)[C@H](Cc1ccccc1)NC(=O)OC(C)(C)C | inhibition [4]: 0%
 |  | CC(C)C[C@@H](NC(=O)[C@H](Cc1c[nH]cn1)NC(=O)[C@H](Cc1ccc2ccccc2c1)NC(=O)OC(C)(C)C)[C@H](O)CSC1CCCCC1 | inhibition [7]: 85%; IC50 [1]: 0.04 µM; inhibition [4]: 0%
35 |  | CC(C)C[C@@H](NC(=O)[C@H](Cc1c[nH]cn1)NC(=O)[C@H](Cc1ccccc1)NC(=O)OC(C)(C)C)[C@H](O)CNC(C)C | 
 | 0.013 | CC(C)C[C@@H](NC(=O)[C@H](Cc1c[nH]cn1)NC(=O)[C@H](Cc1cccc2ccccc12)NC(=O)OC(C)(C)C)[C@H](O)CSC1CCCCC1 | inhibition [7]: 85%
 | 0.52 | CC(C)C[C@H](NC(=O)[C@H](Cc1c[nH]cn1)NC(=O)[C@H](Cc1ccccc1)NC(=O)OC(C)(C)C)[C@@H](O)CSC1CCCCC1 (stereo in doubt; 56) [listing 1 of 2 here] | 
25 |  | CC(C)C[C@@H](NC(=O)[C@H](C)NC(=O)[C@H](Cc1ccccc1)NC(=O)OC(C)(C)C)[C@H](O)CS(=O)(=O)c1ccccc1 | 
 |  | CC(C)C[C@H](NC(=O)[C@H](Cc1c[nH]cn1)NC(=O)[C@H](Cc1ccccc1)NC(=O)OC(C)(C)C)[C@@H](O)CSC1CCCCC1 (stereo in doubt; 56) [listing 2 of 2 here] | inhibition [5]: 95%
5 |  | CC(C)C[C@@H](NC(=O)[C@H](C)NC(=O)[C@H](Cc1ccccc1)NC(=O)OC(C)(C)C)[C@H](O)CNC(C)C | 
89 | 1.5 | CC(C)CC[C@@H](O)[C@@H](CC(C)C)NC(=O)[C@H](Cc1c[nH]cn1)NC(=O)[C@H](Cc1ccccc1)NC(=O)OC(C)(C)C | 
 |  | CC(C)C[C@@H](NC(=O)[C@H](C)NC(=O)[C@H](Cc1ccccc1)NC(=O)OC(C)(C)C)[C@H](O)CCc1ccccc1 | inhibition [8]: 35%
73 | 4.5 | CC(C)C[C@@H](NC(=O)[C@H](C)NC(=O)[C@H](Cc1ccccc1)NC(=O)OC(C)(C)C)[C@H](O)CSCCc1ccccc1 | 
 |  | CC(C)C[C@H](NC(=O)[C@H](Cc1c[nH]cn1)NC(=O)[C@H](Cc1ccccc1)NC(=O)OC(C)(C)C)[C@@H](O)CSC1CCCCC1 (stereo in doubt; 55) [listing 2 of 2 here] | inhibition [7]: 78%
93 | 1.5 | CC(C)CCSC[C@@H](O)[C@@H](CC(C)C)NC(=O)[C@H](C)NC(=O)[C@H](Cc1ccccc1)NC(=O)OC(C)(C)C | 
96 | 0.96 | CC(C)C[C@@H](NC(=O)[C@H](Cc1c[nH]cn1)NC(=O)[C@H](Cc1ccccc1)NC(=O)OC(C)(C)C)[C@H](O)CSc1ccccc1 | inhibition [4]: 0%
56 | 8 | CC(C)C[C@@H](NC(=O)[C@H](C)NC(=O)[C@H](Cc1ccccc1)NC(=O)OC(C)(C)C)[C@H](O)CSc1ccccc1 | 
21 |  | CC(C)C[C@@H](NC(=O)[C@H](Cc1ccc(O)cc1)NC(=O)[C@H](Cc1ccccc1)NC(=O)OC(C)(C)C)[C@H](O)CSc1ccccc1 | inhibition [4]: 11%
